Assay results: ChEMBL document CHEMBL5465560, “Selectivity Literature for EUbOPEN Chemogenomic Library” (2024)

How the values were obtained:
[1] = target: T1, Mitogen-activated protein kinase 12 (Homo sapiens) (UniProt P53778); assay: Selectivity interaction (KinomeScan (DiscoverX)) EUB0001079a MAPK12; conditions: at 1 µM
T1 sequence (whole entry): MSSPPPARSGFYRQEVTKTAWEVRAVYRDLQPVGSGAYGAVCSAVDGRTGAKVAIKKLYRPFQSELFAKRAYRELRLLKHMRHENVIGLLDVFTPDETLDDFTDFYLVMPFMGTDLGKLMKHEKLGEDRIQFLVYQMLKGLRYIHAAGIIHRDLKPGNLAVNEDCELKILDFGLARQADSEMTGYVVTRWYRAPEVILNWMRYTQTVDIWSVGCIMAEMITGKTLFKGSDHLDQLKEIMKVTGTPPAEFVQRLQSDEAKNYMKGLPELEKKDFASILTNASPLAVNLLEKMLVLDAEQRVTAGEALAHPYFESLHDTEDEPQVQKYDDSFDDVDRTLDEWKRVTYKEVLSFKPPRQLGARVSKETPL

[2] = target: T2, Peripheral plasma membrane protein CASK (Homo sapiens) (UniProt O14936); assay: Selectivity interaction (Kinase panel (DSF assay)) EUB0001558a CASK
T2 sequence (whole entry): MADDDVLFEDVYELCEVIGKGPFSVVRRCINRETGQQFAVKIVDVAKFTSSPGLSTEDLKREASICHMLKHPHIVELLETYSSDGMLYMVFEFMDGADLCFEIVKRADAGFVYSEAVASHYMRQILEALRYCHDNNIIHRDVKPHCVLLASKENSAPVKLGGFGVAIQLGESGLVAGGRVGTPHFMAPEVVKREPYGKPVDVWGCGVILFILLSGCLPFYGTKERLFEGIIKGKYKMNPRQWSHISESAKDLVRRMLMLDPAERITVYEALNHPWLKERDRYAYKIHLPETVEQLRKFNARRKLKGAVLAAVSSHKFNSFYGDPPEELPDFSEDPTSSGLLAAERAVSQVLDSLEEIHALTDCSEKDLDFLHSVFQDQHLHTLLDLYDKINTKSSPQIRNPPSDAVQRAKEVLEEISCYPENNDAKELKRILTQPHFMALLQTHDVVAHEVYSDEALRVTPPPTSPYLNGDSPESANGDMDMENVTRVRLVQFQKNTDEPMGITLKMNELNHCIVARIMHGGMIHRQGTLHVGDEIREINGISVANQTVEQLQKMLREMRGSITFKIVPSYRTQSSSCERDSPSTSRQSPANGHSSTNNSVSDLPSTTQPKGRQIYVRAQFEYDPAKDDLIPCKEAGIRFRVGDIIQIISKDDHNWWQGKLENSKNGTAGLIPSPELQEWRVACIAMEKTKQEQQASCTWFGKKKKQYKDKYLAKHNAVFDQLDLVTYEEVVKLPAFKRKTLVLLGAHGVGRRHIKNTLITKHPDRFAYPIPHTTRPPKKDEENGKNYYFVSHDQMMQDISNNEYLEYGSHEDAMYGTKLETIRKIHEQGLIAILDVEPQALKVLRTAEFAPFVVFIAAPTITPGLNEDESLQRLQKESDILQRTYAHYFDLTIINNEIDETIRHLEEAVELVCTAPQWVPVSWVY

[3] = target: T1, Mitogen-activated protein kinase 12 (Homo sapiens); conditions: at 10 µM
[4] = target: Glycogen synthase kinase-3 alpha (Homo sapiens, UniProt P49840); assay: Selectivity interaction (Ambit KINOMEscan and KiNATiv profiling in Jurkat cells) EUB0000090b GSK3A; assay type: cell-based; conditions: at 1 µM
[5] = target: Epidermal growth factor receptor (Homo sapiens, UniProt P00533); assay: Selectivity interaction (Enzyme panel (AstraZeneca, AlphaScreen, functional assay)) EUB0000621a EGFR
[6] = target: Tyrosine-protein kinase Lck (Homo sapiens, UniProt P06239); assay: Selectivity interaction (KinomeScan (DiscoverX)) EUB0001619a LCK; conditions: at 1 µM
[7] = target: Phosphatidylinositol 4-phosphate 3-kinase C2 domain-containing subunit beta (Homo sapiens) (UniProt O00750); assay: Selectivity interaction (KinomeScan (DiscoverX)) EUB0001619a PIK3C2B; conditions: at 1 µM
[8] = target: Tyrosine-protein kinase Lyn (Homo sapiens, UniProt P07948); assay: Selectivity interaction (KinomeScan (DiscoverX)) EUB0000655a LYN; conditions: at 10 µM
[9] = target: Casein kinase I isoform delta (Homo sapiens, UniProt P48730); assay: Selectivity interaction (Kinase panel (Z-LYTE Assay)) EUB0001632a CSNK1D; conditions: at 10 µM
[10] = target: T3, Histone-lysine N-methyltransferase SETD7 (Homo sapiens) (UniProt Q8WTS6); assay: Selectivity interaction (Methyltransferase screen (radiometric assays, panel of 8 PRMTs, 21 protein lysine methyltransferases, 3 DNA methyltransferases, and one RNA methyltransferase)) EUB0000271b SETD7
T3 sequence (whole entry): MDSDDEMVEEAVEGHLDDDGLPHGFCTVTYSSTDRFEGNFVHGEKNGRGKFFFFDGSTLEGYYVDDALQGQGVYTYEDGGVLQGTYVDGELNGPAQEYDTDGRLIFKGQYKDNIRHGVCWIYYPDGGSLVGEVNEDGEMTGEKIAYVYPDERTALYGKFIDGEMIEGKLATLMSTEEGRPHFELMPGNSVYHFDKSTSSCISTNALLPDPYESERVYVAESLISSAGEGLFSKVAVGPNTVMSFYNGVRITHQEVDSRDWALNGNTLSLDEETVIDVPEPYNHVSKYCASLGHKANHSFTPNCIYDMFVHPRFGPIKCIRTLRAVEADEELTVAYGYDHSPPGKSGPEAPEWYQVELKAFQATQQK

Chain of Casein kinase I isoform delta (P48730 whole entry, looked up, canonical isoform): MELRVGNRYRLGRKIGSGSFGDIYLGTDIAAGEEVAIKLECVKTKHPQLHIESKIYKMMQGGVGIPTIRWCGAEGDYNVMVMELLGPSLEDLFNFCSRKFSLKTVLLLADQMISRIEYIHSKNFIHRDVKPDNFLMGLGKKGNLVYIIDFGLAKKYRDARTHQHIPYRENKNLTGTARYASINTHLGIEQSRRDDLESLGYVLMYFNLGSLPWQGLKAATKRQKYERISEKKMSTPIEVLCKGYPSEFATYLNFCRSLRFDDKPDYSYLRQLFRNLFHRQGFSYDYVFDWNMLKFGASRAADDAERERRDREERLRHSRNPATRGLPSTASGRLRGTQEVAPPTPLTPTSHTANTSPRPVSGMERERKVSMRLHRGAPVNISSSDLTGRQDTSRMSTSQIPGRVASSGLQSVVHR
Chain of Glycogen synthase kinase-3 alpha (P49840 2-483 limits assumed): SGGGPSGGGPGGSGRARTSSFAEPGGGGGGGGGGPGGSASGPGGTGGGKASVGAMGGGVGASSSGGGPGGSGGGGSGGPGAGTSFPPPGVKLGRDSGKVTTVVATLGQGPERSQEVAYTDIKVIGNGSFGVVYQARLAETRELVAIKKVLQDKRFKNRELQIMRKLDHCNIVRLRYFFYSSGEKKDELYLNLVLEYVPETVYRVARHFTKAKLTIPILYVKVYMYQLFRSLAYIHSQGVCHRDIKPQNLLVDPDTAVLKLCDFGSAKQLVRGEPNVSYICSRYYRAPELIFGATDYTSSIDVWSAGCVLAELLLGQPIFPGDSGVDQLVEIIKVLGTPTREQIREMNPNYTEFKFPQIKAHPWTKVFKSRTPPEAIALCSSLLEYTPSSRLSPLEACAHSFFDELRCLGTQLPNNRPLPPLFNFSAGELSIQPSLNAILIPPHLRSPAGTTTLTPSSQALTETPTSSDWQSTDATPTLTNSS
Chain of Epidermal growth factor receptor (P00533 whole entry): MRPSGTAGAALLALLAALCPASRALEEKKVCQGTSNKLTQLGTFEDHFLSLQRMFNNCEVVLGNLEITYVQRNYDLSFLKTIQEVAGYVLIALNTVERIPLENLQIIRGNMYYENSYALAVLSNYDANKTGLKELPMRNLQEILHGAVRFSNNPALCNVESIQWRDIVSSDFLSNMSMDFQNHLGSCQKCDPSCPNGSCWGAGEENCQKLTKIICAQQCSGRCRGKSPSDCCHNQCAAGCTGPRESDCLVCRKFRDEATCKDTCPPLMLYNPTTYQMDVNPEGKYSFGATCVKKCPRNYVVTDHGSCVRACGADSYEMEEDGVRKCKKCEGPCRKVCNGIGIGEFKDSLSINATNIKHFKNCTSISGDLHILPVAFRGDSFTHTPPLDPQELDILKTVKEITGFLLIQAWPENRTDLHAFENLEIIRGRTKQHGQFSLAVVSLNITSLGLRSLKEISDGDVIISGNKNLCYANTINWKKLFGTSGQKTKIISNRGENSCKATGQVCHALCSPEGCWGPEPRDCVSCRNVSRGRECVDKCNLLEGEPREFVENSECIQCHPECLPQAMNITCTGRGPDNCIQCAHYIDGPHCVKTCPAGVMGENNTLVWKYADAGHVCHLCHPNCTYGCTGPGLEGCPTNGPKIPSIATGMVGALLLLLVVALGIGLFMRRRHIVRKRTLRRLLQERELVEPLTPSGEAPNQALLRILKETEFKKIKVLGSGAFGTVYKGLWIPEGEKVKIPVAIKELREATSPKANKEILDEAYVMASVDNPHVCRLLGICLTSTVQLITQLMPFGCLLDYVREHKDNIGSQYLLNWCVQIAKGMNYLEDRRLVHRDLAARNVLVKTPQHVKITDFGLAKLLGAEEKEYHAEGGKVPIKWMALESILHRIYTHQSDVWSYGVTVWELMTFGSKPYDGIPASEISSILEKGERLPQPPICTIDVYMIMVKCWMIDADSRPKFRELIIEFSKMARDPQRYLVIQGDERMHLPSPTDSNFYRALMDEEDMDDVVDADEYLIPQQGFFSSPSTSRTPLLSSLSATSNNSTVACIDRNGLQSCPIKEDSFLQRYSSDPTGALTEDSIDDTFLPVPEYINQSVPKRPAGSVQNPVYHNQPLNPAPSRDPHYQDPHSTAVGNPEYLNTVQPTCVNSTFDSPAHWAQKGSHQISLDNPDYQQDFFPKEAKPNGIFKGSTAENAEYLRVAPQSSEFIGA
Chain of Tyrosine-protein kinase Lyn (P07948 2-512 limits assumed): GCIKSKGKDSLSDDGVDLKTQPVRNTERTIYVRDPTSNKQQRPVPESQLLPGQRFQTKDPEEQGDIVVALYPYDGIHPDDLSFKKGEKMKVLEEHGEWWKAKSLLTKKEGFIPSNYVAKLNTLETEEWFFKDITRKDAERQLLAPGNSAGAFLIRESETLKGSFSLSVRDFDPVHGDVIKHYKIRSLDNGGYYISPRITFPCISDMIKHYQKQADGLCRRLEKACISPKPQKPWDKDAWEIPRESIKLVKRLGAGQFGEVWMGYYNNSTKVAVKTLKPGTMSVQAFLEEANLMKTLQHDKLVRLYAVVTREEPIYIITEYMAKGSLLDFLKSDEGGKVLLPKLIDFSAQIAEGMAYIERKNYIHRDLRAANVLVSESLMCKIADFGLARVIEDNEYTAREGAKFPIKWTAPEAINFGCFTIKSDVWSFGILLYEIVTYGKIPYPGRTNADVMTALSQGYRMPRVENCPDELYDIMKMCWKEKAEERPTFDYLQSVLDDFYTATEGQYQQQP
Chain of Phosphatidylinositol 4-phosphate 3-kinase C2 domain-containing subunit beta (Homo sapiens) (O00750 whole entry, the tested form may be a part): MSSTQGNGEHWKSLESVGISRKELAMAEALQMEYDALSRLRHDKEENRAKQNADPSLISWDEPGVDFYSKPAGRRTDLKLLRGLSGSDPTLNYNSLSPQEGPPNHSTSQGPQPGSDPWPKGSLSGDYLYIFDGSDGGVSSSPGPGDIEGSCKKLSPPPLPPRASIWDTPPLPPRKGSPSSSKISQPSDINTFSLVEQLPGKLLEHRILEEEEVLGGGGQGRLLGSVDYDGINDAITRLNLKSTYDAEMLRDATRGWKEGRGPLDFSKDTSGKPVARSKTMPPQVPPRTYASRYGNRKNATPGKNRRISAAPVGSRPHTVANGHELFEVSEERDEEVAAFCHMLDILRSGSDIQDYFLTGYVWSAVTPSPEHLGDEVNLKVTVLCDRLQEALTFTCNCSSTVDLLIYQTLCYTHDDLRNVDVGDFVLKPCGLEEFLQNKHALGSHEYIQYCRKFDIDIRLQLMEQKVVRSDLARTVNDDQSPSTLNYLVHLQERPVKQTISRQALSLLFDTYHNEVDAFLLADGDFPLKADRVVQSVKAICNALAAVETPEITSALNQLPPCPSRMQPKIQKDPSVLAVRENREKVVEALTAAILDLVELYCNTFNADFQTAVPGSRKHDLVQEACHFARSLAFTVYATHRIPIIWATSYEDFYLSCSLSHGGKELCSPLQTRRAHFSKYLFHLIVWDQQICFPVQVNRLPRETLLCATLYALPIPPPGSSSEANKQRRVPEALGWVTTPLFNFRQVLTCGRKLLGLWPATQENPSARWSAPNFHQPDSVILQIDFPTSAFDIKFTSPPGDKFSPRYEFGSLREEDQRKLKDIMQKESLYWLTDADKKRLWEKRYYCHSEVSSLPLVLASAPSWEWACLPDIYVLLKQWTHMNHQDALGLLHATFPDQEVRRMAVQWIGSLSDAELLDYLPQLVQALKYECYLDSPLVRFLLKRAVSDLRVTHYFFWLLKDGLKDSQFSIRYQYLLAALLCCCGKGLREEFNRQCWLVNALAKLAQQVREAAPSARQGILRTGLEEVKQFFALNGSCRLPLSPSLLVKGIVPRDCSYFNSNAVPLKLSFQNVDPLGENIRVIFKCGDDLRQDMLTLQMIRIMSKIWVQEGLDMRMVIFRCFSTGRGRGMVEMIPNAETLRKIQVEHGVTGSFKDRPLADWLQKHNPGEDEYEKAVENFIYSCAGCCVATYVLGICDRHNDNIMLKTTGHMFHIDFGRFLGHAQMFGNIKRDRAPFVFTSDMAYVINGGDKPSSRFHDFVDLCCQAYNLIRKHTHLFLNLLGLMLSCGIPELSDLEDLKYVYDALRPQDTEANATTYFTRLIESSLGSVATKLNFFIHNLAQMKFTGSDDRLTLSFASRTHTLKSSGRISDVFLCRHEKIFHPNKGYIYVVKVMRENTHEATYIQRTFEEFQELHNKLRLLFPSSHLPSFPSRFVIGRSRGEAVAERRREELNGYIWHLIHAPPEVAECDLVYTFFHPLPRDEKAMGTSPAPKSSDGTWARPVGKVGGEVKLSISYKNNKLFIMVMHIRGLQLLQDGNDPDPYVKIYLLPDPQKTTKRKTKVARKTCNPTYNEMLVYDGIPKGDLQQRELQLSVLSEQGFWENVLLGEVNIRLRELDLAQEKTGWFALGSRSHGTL
Chain of Tyrosine-protein kinase Lck (P06239 2-509 limits assumed): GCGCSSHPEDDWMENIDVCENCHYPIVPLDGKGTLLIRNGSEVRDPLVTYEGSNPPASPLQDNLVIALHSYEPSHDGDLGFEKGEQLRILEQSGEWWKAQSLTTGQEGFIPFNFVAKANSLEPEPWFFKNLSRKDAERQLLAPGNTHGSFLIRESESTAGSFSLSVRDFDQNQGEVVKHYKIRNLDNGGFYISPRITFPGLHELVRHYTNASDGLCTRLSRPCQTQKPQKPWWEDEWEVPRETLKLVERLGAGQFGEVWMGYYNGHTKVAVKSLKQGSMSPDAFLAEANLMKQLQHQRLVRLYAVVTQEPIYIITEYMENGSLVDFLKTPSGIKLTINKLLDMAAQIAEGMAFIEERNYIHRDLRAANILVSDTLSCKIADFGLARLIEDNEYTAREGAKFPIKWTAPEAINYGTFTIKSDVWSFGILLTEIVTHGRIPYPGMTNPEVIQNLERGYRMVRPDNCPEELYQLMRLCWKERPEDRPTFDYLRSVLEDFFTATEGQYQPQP

## Nc1cnc(N2CCc3cc(S(=O)(=O)Nc4c(F)cc(Cl)cc4F)cc(N4CCCC4=O)c32)nc1 [TP-020n]
[1]
  % of control: 100%

## CC(C)(O)[C@H](F)CN1Cc2cc(NC(=O)c3cnn4cccnc34)c(N3CCOCC3)cc2C1=O
[2]
  dTM: -0.5 K

## CCN(CC)CCCCNc1ncc2cc(-c3cc(OC)cc(OC)c3)c(NC(=O)NC(C)(C)C)nc2n1
[3]
  % of control: 100%

## CN(C)C/C=C/C(=O)Nc1ccc(C(=O)N2CCCC(Nc3ncc(Cl)c(-c4c[nH]c5ccccc45)n3)C2)cc1 (stereo unspecified)
[4]
  % of control: 5.7%

## Cc1cc([C@@H](C)Nc2ccccc2C(=O)O)c2nc(N3CCOCC3)cc(=O)n2c1 [AZD-6482]
[5]
  IC50: > 298 µM

## N#Cc1cccc(-c2c[nH]c3ncnc(N4CCOCC4)c23)c1
[6]
  % of control: 95%
[7]
  % of control: 100%

## CN(C)CCOc1ccc(-c2nc(-c3ccncc3)c(-c3ccc4c(c3)CC/C4=N\O)[nH]2)cc1
[8]
  % of control: 86%

## Cn1cc(-n2cnc3c(NCc4nc5cc(Cl)c(Cl)cc5[nH]4)nc(N4CCOCC4)nc32)cn1
[9]
  % of control: 23.3%

## Cc1cc(C)cc([C@@H]2c3cc(C)ccc3NC(=O)CN2C(=O)c2ccc(Br)s2)c1
[10]; at 1 µM
  % of activity: 95.3%
[10]; at 10 µM
  % of activity: 95.7%
